Experimental data taken from paper PMC2120771 (The Journal of Cell Biology, 1996).

Assays:
Listeria monocytogenes = conditions: microinjection; ref Southwick and Purich, 1995; cited from earlier work
Shigella flexneri M90T = assay: Shigella intracellular motility in PtK2 cells before and after microinjection; format: cell-based
profilin-VASP = conditions: in vitro; ref Reinhard et al., 1995; cited from earlier work
[1] = intracellular 80 nM, 2-4 min after microinjection
[2] = intracellular concentration 10 μM

YDPAPPPPPP [mosquito oostatic factor]
Effect on Listeria locomotion (Listeria monocytogenes): inhibits Listeria locomotion

CFEFPPPPTDE [Act A peptide]
Time after injection at which bacterial motility ceases (Shigella flexneri M90T; 800 nM needle concentration, estimated intracellular concentration 80 nM): ≤ 30 s | Time after injection at which phase-dense actin tails disappear (Shigella flexneri M90T; estimated intracellular concentration 80 nM): ≤ 30 s | Fraction of bacteria that resume migration (Shigella flexneri M90T; [1]): One quarter | Rate of resumed movement relative to velocities measured before injection (Shigella flexneri M90T; [1]): 25-30% | Effect on Shigella intracellular movement (Shigella flexneri M90T; intracellular concentration 8 nM (Fig. 5 B)): fails to inhibit | Postinjection/preinjection velocity (Shigella flexneri M90T; intracellular concentration 80 nM): 0.07 | Effect on Shigella intracellular movement (Shigella flexneri M90T; intracellular concentrations 400-800 nM (Fig. 5 B)): consistently block intracellular movement

VKSKIGSTDNIKYZPKGG [MAP-2 peptide, reference compound]
Postinjection/preinjection velocity (Shigella flexneri M90T; [2]): 1.00

poly-L-proline [reference compound]
Effect on Shigella velocity (Shigella flexneri M90T; increasing intracellular concentrations (Fig. 8 A), each point mean of 20-40 velocity measurements): dose-dependent slowing of bacterial velocity

(GPPPPP)3 [VASP peptide]
Intracellular concentration that inhibits Shigella movement (Shigella flexneri M90T; PtK2 cells, microinjection, estimated intracellular concentration): 10 µM | Postinjection/preinjection velocity (Shigella flexneri M90T; [2]): 0.15 | Postinjection velocity (Shigella flexneri M90T; intracellular concentration 10 μM, mean, SD): 0.02 - 0.05 μm/s | Effect on Shigella motility (Shigella flexneri M90T; intracellular concentrations 2 and 6 μM (Fig. 7 B), large standard deviations): variable inhibition | Dissociation of profilin from VASP (profilin-VASP): can dissociate profilin from VASP in vitro
